In ChEMBL document CHEMBL3882724 (2013) one finds IC50, half-life and inhibition data, which are given here for 24 compounds.

pIC50: −log10 of the molar value.

Data set [1] addresses T1, Steroid 17-alpha-hydroxylase/17,20 lyase (Homo sapiens, UniProt P05093).
T1 sequence (P05093 whole entry): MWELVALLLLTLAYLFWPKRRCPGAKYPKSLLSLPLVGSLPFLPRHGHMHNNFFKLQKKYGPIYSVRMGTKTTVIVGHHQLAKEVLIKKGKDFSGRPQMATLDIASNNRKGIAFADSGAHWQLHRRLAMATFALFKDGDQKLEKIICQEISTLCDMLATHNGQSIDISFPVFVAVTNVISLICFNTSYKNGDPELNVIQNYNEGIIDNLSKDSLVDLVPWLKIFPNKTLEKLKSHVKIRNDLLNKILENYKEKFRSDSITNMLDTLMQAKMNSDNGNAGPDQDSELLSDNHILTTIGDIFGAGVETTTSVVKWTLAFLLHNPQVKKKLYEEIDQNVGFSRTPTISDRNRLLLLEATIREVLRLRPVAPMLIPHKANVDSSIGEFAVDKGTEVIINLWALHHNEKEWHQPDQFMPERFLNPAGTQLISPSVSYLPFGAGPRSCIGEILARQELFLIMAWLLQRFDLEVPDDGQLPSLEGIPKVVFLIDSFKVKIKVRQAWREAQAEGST
The data set is described as follows: Inhibition of CYP17 in human testicular microsomes using 17alpha-hydroxypregnenolone as substrate assessed as decrease in DHEA levels at 1 nM after 90 mins by ELISA relative to control. Also noted: species or system Testis. For orientation: An ELISA detects its analyte on a solid surface through an enzyme-linked reagent.

Data set [2] is described as follows: Half life in human liver microsomes at 1 uM by LC-MS/MS analysis. In general terms: Liver microsomes are a subcellular fraction often used to study metabolism.
For data set [3], the target named is T2, CYP21 (steroid 21-hydroxylase) (Homo sapiens, UniProt P08686).
T2 sequence (P08686 whole entry): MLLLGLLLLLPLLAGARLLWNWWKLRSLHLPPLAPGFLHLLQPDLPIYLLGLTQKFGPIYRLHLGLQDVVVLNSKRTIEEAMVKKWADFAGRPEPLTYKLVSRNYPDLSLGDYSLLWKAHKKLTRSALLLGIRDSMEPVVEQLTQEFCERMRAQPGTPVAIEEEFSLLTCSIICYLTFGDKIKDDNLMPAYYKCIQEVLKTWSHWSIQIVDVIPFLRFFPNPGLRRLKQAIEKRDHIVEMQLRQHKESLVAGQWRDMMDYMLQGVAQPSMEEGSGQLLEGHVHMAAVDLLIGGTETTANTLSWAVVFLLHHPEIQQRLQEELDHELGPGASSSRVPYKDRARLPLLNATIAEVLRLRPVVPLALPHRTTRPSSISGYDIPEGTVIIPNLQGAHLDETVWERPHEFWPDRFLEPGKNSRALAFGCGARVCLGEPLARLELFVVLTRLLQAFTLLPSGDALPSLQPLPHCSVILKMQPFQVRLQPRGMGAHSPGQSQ
Put plainly: Inhibition of human CYP21 transfected in HEK293 cells assessed as decrease in conversion of progesterone to 11-deoxycorticosterone preincubated for 5 hrs followed by progesterone addition measured after 20 hrs by ELISA. The class given is cell-based. On the set-up: concentration or dose not given beside the values. The following applies: HEK293 cells transfected with human CYP21, probe progesterone.

For data set [4], the target named is T1, Steroid 17-alpha-hydroxylase/17,20 lyase. Put plainly: Inhibition of CYP17 in human testicular microsomes using 17alpha-hydroxypregnenolone as substrate assessed as decrease in DHEA levels after 90 mins by ELISA. On the set-up: species or system Testis.
For data set [5] the target is unchanged. The data set is described as follows: Inhibition of CYP17 in human H295R cells assessed as decrease in testosterone levels after 24 hrs by ELISA. The format is cell-based.
Data set [6] shares this target. Put plainly: Inhibition of CYP17 in human testicular microsomes using 17alpha-hydroxypregnenolone as substrate assessed as decrease in DHEA levels at 10 nM after 90 mins by ELISA relative to control. On the set-up: species or system Testis. Conditions: 1.5 h.

A word on the pIC50: it is the IC50 on a negative log10 scale, so that one unit is a factor of ten. For orientation: half-life means the time in which the quantity being followed falls by half. The inhibition is the percentage by which the read-out fell short of the control. On to `CC1C[C@H]2C3=CC=C(c4cccnc4)[C@@]3(C)CC[C@@H]2[C@@]2(C)CCC(=O)C=C12` (some centres undefined), for which the pIC50 was at least 8.00 in data set [1] and at least 7.96 in data set [4]. In addition, the half-life at 1 µM in data set [2] was in the range of 1 to 50 min. Further, the inhibition at 20 h in data set [3] is at least 50%.
Take `C=C1C[C@@H]2[C@H](CC[C@]3(C)C(c4cncc(F)c4)=CC[C@@H]23)[C@@]2(C)C=CC(=O)C=C12`: the negative-log IC50 (pIC50) in data set [1] is under 7.00; in data set [5], at least 7.82; in data set [4], at least 7.96. Moreover, the half-life at 1 µM in data set [2] lay within 1 to 50 min.
For `C=C1CC2[C@H](CC[C@]3(C)C(c4cccnc4)=CC[C@@H]23)C2(C)C=CC(=O)C=C12` (single isomer, unassigned), the results for the pIC50 in data set [1], in data set [5] and in data set [4] were at least 8.00, at least 7.82 and at least 7.96, respectively. This compound also gave a half-life at 1 µM in data set [2] of 1 to 50 min. Moreover, the inhibition at 20 h in data set [3] is at least 50%.
Regarding `CC1C[C@@H]2[C@H](CC[C@]3(C)C(c4cccnc4)=CC[C@@H]23)[C@@]2(C)C=CC(=O)C=C12` (some centres undefined), the negative logarithm of the IC50 (pIC50) in data set [1] is at least 8.00; in data set [5] it was at least 7.82. For the same compound, in data set [2], the half-life at 1 µM was in the range of 1 to 50 min. Also, in data set [3], the inhibition at 20 h is at least 50%.
On the same counts, the results for `CC1C[C@H]2C3=CC=C(c4cncc(F)c4)[C@@]3(C)CC[C@@H]2[C@@]2(C)CCC(=O)C=C12` (some centres undefined) are at least 8.00, at least 7.82, 1 to 50 min and 10 to 50%.
As for `CCC1C[C@H]2C3=CC=C(c4cccnc4)[C@@]3(C)CC[C@@H]2[C@@]2(C)CCC(=O)C=C12` (some centres undefined), the negative logarithm of the IC50 (pIC50) in data set [1] was 7.00 to 8.00; in data set [4], at least 7.96. Moreover, the half-life at 1 µM in data set [2] lay within 1 to 50 min. The inhibition at 20 h in data set [3] lay within 10 to 50%.
As to `C=C1C[C@@H]2[C@H](CC[C@]3(C)C(c4cccnc4)=CC[C@@H]23)[C@@]2(C)CCC(=O)C=C12`, the figures for the negative logarithm of the IC50 (pIC50) in data set [1], in data set [5] and in data set [4] were 7.00 to 8.00, at least 7.82 and at least 7.96, respectively. In addition, the half-life at 1 µM in data set [2] lay within 1 to 50 min. Moreover, in data set [3], the inhibition at 20 h was at least 50%.
For the compound `CC1C[C@@H]2[C@H](CC[C@]3(C)C(c4cccnc4)CC[C@@H]23)[C@@]2(C)C=CC(=O)C=C12` (some centres undefined), the pIC50 is at least 8.00 in data set [1] and at least 6.95 in data set [4]. Also, the half-life at 1 µM in data set [2] fell in the range of 1 to 50 min.
Turning to `CC1C[C@H]2C3=CC=C(c4cccnc4)[C@@]3(C)CC[C@@H]2[C@@]2(C)C=CC(=O)C=C12` (some centres undefined), the pIC50 in data set [1] was at least 8.00. Also, the half-life at 1 µM in data set [2] lay within 1 to 50 min. The inhibition at 20 h in data set [3] was at least 50%. Further, the inhibition at 0.01 µM in data set [6] was at least 80%.
In the case of `CC1C[C@H]2C3=CC=C(c4cncc(F)c4)[C@@]3(C)CC[C@@H]2[C@@]2(C)CCNC(=O)C=C12` (some centres undefined), the pIC50 in data set [1] was 7.00 to 8.00. Also, the half-life at 1 µM in data set [2] was in the range of 1 to 50 min. For the same compound, the inhibition at 20 h in data set [3] was 10 to 50%.
As to `CC1C[C@@H]2[C@H](CC[C@]3(C)C(c4cncc(F)c4)=CC[C@@H]23)[C@@]2(C)CCC(=O)C=C12` (some centres undefined), the figures for the pIC50 in data set [1], in data set [5] and in data set [4] were under 7.00, at least 7.82 and at least 7.96, respectively. Moreover, the inhibition at 20 h in data set [3] was at least 50%.
In the case of `C[C@]12CC[C@H]3[C@@H](CCC4=CC(=O)C=C[C@@]43C)C1=CC=C2c1cccnc1`, the pIC50 in data set [1] is 7.00 to 8.00; in data set [5], at least 7.82; in data set [4] it was at least 7.96. In addition, the half-life at 1 µM in data set [2] lay within 1 to 50 min. Moreover, the inhibition at 20 h in data set [3] was at least 50%.
The like results for `CC1C[C@@H]2[C@H](CC[C@]3(C)C(c4cccnc4)=CC[C@@H]23)[C@@]2(C)CCC(=O)C=C12` (some centres undefined) were, in that order, 7.00 to 8.00, at least 7.82, at least 7.96, 1 to 50 min and at least 50%.
Regarding `C[C@]12CCNC(=O)C=C1C1CC1[C@@H]1[C@@H]2CC[C@]2(C)C(c3cccnc3)=CC[C@@H]12` (some centres undefined), the pIC50 in data set [1] is under 7.00; in data set [4], at least 7.96. Besides, the half-life at 1 µM in data set [2] lay within 1 to 50 min. Moreover, the inhibition at 20 h in data set [3] is at least 50%.
With `C[C@]12CC[C@H]3[C@@H](CCC4=CC(=O)CC[C@@]43C)C1=CC=C2c1cncc(F)c1`, the pIC50 is 7.00 to 8.00 in data set [1], at least 7.82 in data set [5] and at least 7.96 in data set [4]. Besides, the half-life at 1 µM in data set [2] fell in the range of 1 to 50 min. Also, the inhibition at 20 h in data set [3] is at least 50%.
For `CC1C[C@@H]2[C@H](CC[C@]3(C)C(c4cccnc4)=CC[C@@H]23)[C@@]2(C)CC/C(=N\O)C=C12` (some centres undefined), the negative logarithm of the IC50 (pIC50) in data set [1] was under 7.00. Further, in data set [2], the half-life at 1 µM is 1 to 50 min. Further, in data set [3], the inhibition at 20 h is 10 to 50%.
Consider `C[C@]12CC[C@H]3[C@@H](CCC4=CC(=O)CC[C@@]43C)C1=CC=C2c1cncnc1`, for which the pIC50 in data set [1] is 7.00 to 8.00; in data set [4] it was at least 7.96. The compound further displayed a half-life at 1 µM in data set [2] of 1 to 50 min. The inhibition at 20 h in data set [3] was at least 50%.
The like results for `C[C@]12CC[C@H]3[C@@H](C=CC4=CC(=O)CC[C@@]43C)C1=CC=C2c1cccnc1` were, in that order, 7.00 to 8.00, at least 7.96, 1 to 50 min and at least 50%.
In the case of `C[C@]12CC[C@H]3[C@@H](CCC4=CC(=O)NCC[C@@]43C)C1=CC=C2c1cncc(F)c1`, the figures for the pIC50 in data set [1] and in data set [5] were under 7.00 and at least 7.82, respectively. In addition, the half-life at 1 µM in data set [2] is 1 to 50 min. Moreover, the inhibition at 20 h in data set [3] lay within 10 to 50%.
On to `C[C@]12CCNC(=O)C=C1C1(CC1)C[C@@H]1[C@@H]2CC[C@]2(C)C(c3cccnc3)=CC[C@@H]12`, for which the pIC50 was at least 8.00 in data set [1], at least 7.82 in data set [5] and at least 7.96 in data set [4]. This compound had a half-life at 1 µM in data set [2] of 1 to 50 min. The inhibition at 20 h in data set [3] was 10 to 50%.
As for `C[C@]12CCC(=O)C=C1C1CC1[C@@H]1[C@@H]2CC[C@]2(C)C(c3cccnc3)=CC[C@@H]12` (some centres undefined), the pIC50 in data set [1] is under 7.00. In data set [2], this compound yielded a half-life at 1 µM of 1 to 50 min. Moreover, in data set [3], the inhibition at 20 h is at least 50%.
As for `C[C@]12CCC(=O)C=C1C1(CC1)C[C@@H]1[C@@H]2CC[C@]2(C)C(c3cccnc3)=CC[C@@H]12`, the pIC50 in data set [1] was at least 8.00; in data set [5], at least 7.82; in data set [4], at least 7.96. In addition, the half-life at 1 µM in data set [2] was in the range of 1 to 50 min. For the same compound, in data set [3], the inhibition at 20 h was at least 50%.
Consider `C[C@]12CC[C@H]3[C@@H](C=CC4=C(O)C(=O)CC[C@@]43C)C1=CC=C2c1cccnc1`, for which the pIC50 in data set [1] is under 7.00. Also, in data set [2], the half-life at 1 µM was 1 to 50 min. In data set [3], the inhibition at 20 h is at least 50%.
With `C[C@]12C=CC(=O)C=C1C1(CC1)C[C@@H]1[C@@H]2CC[C@]2(C)C(c3cccnc3)=CC[C@@H]12`, the pIC50 is at least 8.00 in data set [1], at least 7.82 in data set [5] and at least 7.96 in data set [4]. This compound also gave a half-life at 1 µM in data set [2] of 1 to 50 min. The inhibition at 20 h in data set [3] was 10 to 50%.
